Consider one compound from US11576979B2, “Pyrrolobenzodiazepine prodrugs and antibody conjugates thereof” (GENENTECH, INC., priority 2016, dated 2023).

Type in all cases: cell-based
In test [1] the test system is MDA-MB-453 tumor cell line. As to the kind of experiment: in vitro tumor cell killing assay, 3 days (Example 13). The settings on record: Homo sapiens, 72 h; MDA-MB-453; 3 days; read-out: EC50. The method, then:
The toxicity of various PBD monomer and dimer boronic acid prodrug compounds were evaluated for cell toxicity. In the in vitro tumor cell killing assay, the cells were added to each well of 96-well microtiter plates at 8,000 cells per well and were incubated overnight at 37° C. in a humidified atmosphere of 5% CO2. The cells were exposed to various concentration of the indicated prodrug, positive control and negative control compounds. Where silvestrol was evaluated, a 1:3 serial dilution was used. After incubation for 3 days, Cell titer-Glo reagent (Promega, Madison Wis.) was added to the wells at 100 μL per well followed by a 10-minute incubation at room temperature, and the luminescent signal was measured using a Packard/Perkin-Elmer TopCount.
The toxicity of PBD monomer boronic acid prodrug 1 was evaluated against MDA-MB-453 tumor cell line for cell viability. PBD monomer control 1 was used as a positive control and PBD monomer control 2 was used as a negative control. The toxicity study was repeated wherein the PBD prodrug and controls were administered in combination with silvestrol. FIG. 15C depicts a plot of MDA-MB-453 cell kill versus drug concentration in μM three days after exposure to: (i) a PBD monomer control; (ii) a PBD monomer control having a benzyl formate moiety at the N10 PBD position; and (iii) a PBD monomer boronic acid prodrug. […]

The next test concerns A2058. As to the kind of experiment: CellTiter-Glo toxicity, 4 days (Example 9). Particulars: Homo sapiens, A2058, 96 h, 4 days of drug incubation; Table 7A. Summed up:
(§1)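 Cells were seeded in 384-well plates, dosed 24 h later and incubated with drug for 4 days. Viability was read as ATP luminescence by CellTiter-Glo and normalised to untreated controls. IC50 is the concentration giving 50% of maximum cell killing.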
(ATP-based viability assays read luminescence as a measure of living cells.)

A further test concerns UACC-257. As to the kind of experiment: CellTiter-Glo toxicity, 4 days (Example 9). Particulars: Homo sapiens, UACC-257, 96 h, 4 days of drug incubation; Table 7A. Summed up:
as §1

The subject of another test is Igrov-1. As to the kind of experiment: CellTiter-Glo toxicity, 4 days (Example 9). The settings on record: Homo sapiens, IGROV-1, 96 h, 4 days of drug incubation; Table 7A. A digest of the protocol: as §1

With `C=C1C[C@H]2C=Nc3cc(OC)c(OC)cc3C(=O)N2C1` [PBD monomer control 1, reference compound], the EC50 in test [1] was found to be 164 nM. In addition, the IC50 was 56.9 nM in the test on A2058, 181 nM with UACC-257 and 68.5 nM in the test on Igrov-1.

Broadly, the EC50 is the concentration giving half of the maximal effect. One may read the IC50 as the concentration at which inhibition is half-maximal. A low value points to greater potency.
